# From US6239132A, “Thrombin inhibitors” (Merck & Co., Inc., priority 2000, dated 2001)
# pKi: −log10 of the molar value.
# Molecular target: human α-thrombin (Homo sapiens, UniProt P00734)
# Test: In vitro assay for determining proteinase inhibition: human α-thrombin
# Type: biochemical
# Conditions: 25° C., 0.05M TRIS buffer pH 7.4, 0.15M NaCl, 0.1% PEG; sar-PR-pna (or Z-GPR-afc for potent inhibitors); read-out: Inhibitory activity (Ki)
# Description: Examples of this group are listed below in Table 1. […] Values are as determined according to the in vitro assay described later in the specification.
# In Vitro Assay for Determining Proteinase Inhibition
# Assays of human α-thrombin and human trypsin were performed by the methods substantially as described in Thrombosis Research, Issue No. 70, page 173 (1993) by S. D. Lewis et al.
# The assays were carried out at 25° C. in 0.05M TRIS buffer pH 7.4, 0.15M NaCl, 0.1% PEG. Trypsin assays also contained 1 mM CaCl2.
# Concentrations of stock solutions of Z-GPR-afc were determined from measurements of absorbance at 380 nm of the 7-amino-4-trifluoromethyl coumarin produced upon complete hydrolysis of an aliquot of the stock solution by thrombin.
# Times required to achieve equilibration between enzyme and inhibitor were determined in control experiments. Initial velocities of product formation in the absence (Vo) or presence of inhibitor (Vi) were measured. Assuming competitive inhibition, and that unity is negligible compared Km /[S], […] (where [S], [I], and e respectively represent the total concentrations, of substrate, inhibitor and enzyme), the equilibrium constant (Ki) for dissociation of the inhibitor from the enzyme can be obtained from the dependence of Vo /Vi on [I] shown in equation 1: […]
row,pKi,SMILES
1,> 7.00,Cc1cc2c(c(=O)n1CC(=O)NCc1cc3cc[nH]c3cn1)NC(=O)OC2(C)C
2,> 7.00,Cc1cc2c(c(=O)n1CC(=O)NCc1cc3cc[nH]c3cn1)NC(=O)OC2(CC1CC1)CC1CC1
3,> 7.00,CCC1(CC)OC(=O)Nc2c1cc(C)n(CC(=O)NCc1ccc(N)nc1C)c2=O
4,> 7.00,Cc1cc2c(c(=O)n1CC(=O)NCc1cccc(Cl)c1)NC(=O)OC2(C(C)C)C(C)C
